{"source": "paper PMC10001067", "about": "“Xanthine Oxidase Inhibitory Peptides from Larimichthys polyactis: Characterization and In Vitro/In Silico Evidence” (Foods, 2023)", "key": {"XO": {"tested_on": "XO", "conditions": "concentration of 0.25 mg/mL; cited from earlier work", "procedure": "Nongonierma reported that Trp inhibited XO by 70.3 ± 1.1% at a concentration of 0.25 mg/mL. Li claimed that relatively lower IC50 values were mainly located in the peptides containing Trp residue, reporting that the IC50 values of peptides WDD, WDQW, PPKNW, WPPKN, and WSREEQE were lower than those of peptides HCPF and ADIYTE, and that these ..."}, "[1]": {"experiment": "Dissolution of synthesized peptides in water", "type": "physicochemical"}, "xanthine oxidase (XO) [2]": {"target": "xanthine oxidase (XO)", "conditions": "peptide from Skipjack tuna hydrolysates; read-out: XOI activity of IC50; cited from earlier work", "description": "Seven peptides (WDDMEKIW, APPERKYSVW, IADRMQKELT, LNSADLIK, LSNLGIVI, IGALRAVA, and HHTFYNELR) derived from SYC were obtained and their activity values, hemolysis, and toxicity were predicted. Their basic data (AA sequence, MW, PI, predicted activity values, hemolysis, toxicity, and IC50 for XOI activity) are summarized in Table 3. […] Only WW8 and AW10 were predicted to have higher potential physiological activity, and all were non-hemolytic except LSNLGIVI and LNSADLIK. The r ..."}, "xanthine oxidase (XO) [3]": {"target": "T1, xanthine oxidase (XO) (Bos taurus, UniProt P80457)", "T1 construct": "xanthine oxidase (X1875-5UN, derived from bovine milk); purchased Solarbio Co., Ltd. (Beijing, China) X1875-5UN; host or cells: bovine milk", "T1 sequence (P80457 whole entry)": "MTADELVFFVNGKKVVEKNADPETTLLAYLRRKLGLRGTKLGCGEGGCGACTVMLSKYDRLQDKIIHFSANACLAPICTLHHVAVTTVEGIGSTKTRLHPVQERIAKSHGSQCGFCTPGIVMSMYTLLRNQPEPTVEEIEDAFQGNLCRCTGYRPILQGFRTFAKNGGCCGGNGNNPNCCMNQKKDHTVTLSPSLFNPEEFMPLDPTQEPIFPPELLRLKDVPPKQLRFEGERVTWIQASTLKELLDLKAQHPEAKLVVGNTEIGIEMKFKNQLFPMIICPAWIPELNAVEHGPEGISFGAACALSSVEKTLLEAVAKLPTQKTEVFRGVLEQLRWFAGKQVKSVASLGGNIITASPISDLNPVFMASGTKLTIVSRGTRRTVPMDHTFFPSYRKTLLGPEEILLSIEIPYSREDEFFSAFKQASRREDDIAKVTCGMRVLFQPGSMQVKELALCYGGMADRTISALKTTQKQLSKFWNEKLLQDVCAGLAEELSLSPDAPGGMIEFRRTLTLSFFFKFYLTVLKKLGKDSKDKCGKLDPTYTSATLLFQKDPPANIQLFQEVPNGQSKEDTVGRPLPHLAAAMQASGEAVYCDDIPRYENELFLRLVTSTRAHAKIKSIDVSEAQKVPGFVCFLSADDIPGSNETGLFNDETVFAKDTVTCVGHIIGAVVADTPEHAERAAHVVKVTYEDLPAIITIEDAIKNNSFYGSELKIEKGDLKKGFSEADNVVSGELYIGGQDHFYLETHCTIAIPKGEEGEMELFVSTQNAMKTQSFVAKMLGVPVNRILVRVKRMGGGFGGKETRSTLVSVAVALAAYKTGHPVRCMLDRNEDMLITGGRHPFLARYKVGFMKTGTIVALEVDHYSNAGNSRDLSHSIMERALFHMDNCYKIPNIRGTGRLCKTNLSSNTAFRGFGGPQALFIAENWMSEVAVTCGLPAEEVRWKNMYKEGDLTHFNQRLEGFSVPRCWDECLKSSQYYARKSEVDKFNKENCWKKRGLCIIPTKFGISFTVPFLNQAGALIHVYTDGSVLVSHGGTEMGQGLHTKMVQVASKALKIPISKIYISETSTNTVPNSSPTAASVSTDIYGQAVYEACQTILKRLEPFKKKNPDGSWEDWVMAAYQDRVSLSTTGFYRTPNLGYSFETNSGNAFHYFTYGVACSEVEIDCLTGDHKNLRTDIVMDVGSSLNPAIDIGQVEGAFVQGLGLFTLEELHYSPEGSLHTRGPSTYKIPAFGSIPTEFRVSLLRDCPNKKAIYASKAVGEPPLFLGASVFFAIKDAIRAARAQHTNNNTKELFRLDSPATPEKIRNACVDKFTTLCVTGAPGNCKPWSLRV", "experiment": "XOI activity IC50 in vitro (uric acid formation, absorbance 290 nm)", "type": "biochemical, bovine milk", "conditions": "for IC50: synthesized peptides, 0.2 M potassium phosphate buffer pH 7.4, XO 0.07 U/mL, xanthine 0.48 mM, 37 °C, absorbance 290 nm, mean ± SD, n = 3, SD; for XOI activity at 15 mg/mL: peptide at 15 mg/mL", "procedure": "The XOI activity levels of SYCHs were determined and calculated with the methods reported by Liu and Wei with slight modifications. Xanthine was dissolved in 0.2 M potassium phosphate buffer (pH = 7.4) to a concentration of 0.48 mM. In addition, samples (SYCH, UF-1, UF-2, and UF-3) were also dissolved in 0.2 M potassium phosphate buffer (pH = 7.4). Next, 50 μL of sample solution and 50 μL of XO solution (0.07 U/mL) were mixed and incubated at 37 °C for 5 min, then 150 μL of xanthine solution was added to the mixture to continue the reaction. The absorbance of formed uric acid in the samples was monitored at 290 nm with a multifunctional microplate reader (Tecan Co., Ltd., Männedorf, Switzerland). The results were recorded for 10 min. The assay was performed in triplicate. The formula for the calculation of XOI activity is as follows: […]=(dA/dt)blank−(dA/dt)sample/(dA/dt)blank × 100% where (dA/dt)blank and (dA/dt)sample are the reaction rate without and with the test sample inhibitor, respectively. IC50 values were calculated from the mean values of data. XOI activity IC50 (the concentration of active compound required to observe 50% XO inhibition) was determined by plotting the percentage inhibition as a function of concentration of the test compound."}}, "note": "No end group written: not given here."}
{"compound": "N[C@@H](Cc1c[nH]c2ccccc12)C(=O)O", "note": "[Trp]", "values": [{"measurement": "Inhibition of XO", "setting": "XO", "value": "70.3 ± 1.1", "unit": "%"}]}
{"compound": "IGALRAVA [peptide derived from SYC]", "values": [{"measurement": "Dissolution in water at 3 mg/mL", "setting": "[1]", "value": "did not even dissolve in water"}]}
{"compound": "HHTFYNELR [peptide derived from SYC]", "values": [{"measurement": "Dissolution in water at 3 mg/mL", "setting": "[1]", "value": "did not even dissolve in water"}]}
{"compound": "ACECD [XOI peptide from Skipjack tuna hydrolysates]", "values": [{"measurement": "IC50", "setting": "xanthine oxidase (XO) [2]", "value": 13.4, "unit": "mM"}]}
{"compound": "APPERKYSVW [APPERKYSVW, Ala-Pro-Pro-Glu-Arg-Lys-Tyr-Ser-Val-Trp]", "values": [{"measurement": "IC50", "setting": "xanthine oxidase (XO) [3]", "value": "5.86 ± 0.02", "unit": "mM"}]}
{"compound": "WDDMEKIW [WDDMEKIW, Trp-Asp-Asp-Met-Glu-Lys-Ile-Trp]", "values": [{"measurement": "IC50", "setting": "xanthine oxidase (XO) [3]", "value": "3.16 ± 0.03", "unit": "mM"}]}
{"compound": "LSNLGIVI [peptide derived from SYC]", "values": [{"measurement": "Dissolution in water at 3 mg/mL", "setting": "[1]", "value": "did not even dissolve in water"}]}
{"compound": "IADRMQKELT [peptide derived from SYC]", "values": [{"measurement": "XOI activity at 15 mg/mL", "setting": "xanthine oxidase (XO) [3]", "value": "no XOI activity"}]}
{"compound": "LNSADLIK [peptide derived from SYC]", "values": [{"measurement": "XOI activity at 15 mg/mL", "setting": "xanthine oxidase (XO) [3]", "value": "no XOI activity"}]}
